The subject of series [1] is A549 human lung cancer cells. The series can be described thus: In vitro antiproliferative activity, MTT, 72 h continuous treatment (no-washout). The class given is cell-based. The protocol:
(§1) U87MG human malignant glioma, SK-MEL-28 human melanoma, SK-OV-3 human ovarian cancer, and A549 human lung cancer cell lines were purchased from ATCC. The cells were cultured in Dulbecco’s Modified Eagle’s Medium (DMEM; Biosera, Nuaille, France), supplemented with 10% heat-inactivated Fetal Bovine Serum (FBS; Biosera), and with 1% Penicillin/Streptomycin (Biosera). Cells were cultured in sterile T75 flasks with ventilation cap (Sarstedt, Nümbrecht, Germany) at 37 °C in a humidified atmosphere with 5% CO2 in ESCO CelCulture Incubator (ESCO, Friedberg, Germany). Manipulations with the cells were performed in biosafety cabinet (laminar) ESCO Sentinel Gold class II model AC2-4E8 (ESCO).
(§2) After standard trypsinization and harvesting cells by trypsin (Biosera), ethylenediaminetetraacetic acid (EDTA; Biosera) and PBS solution, 6×10^3 cells per well were seeded in serum containing (10%) growth medium to 96-well plates with flat bottom (Eppendorf, Hamburg, Germany), in a 100 μL volume per well, and incubated at 37°C.
(§3) In the wash out experiment, cells were incubated with the compounds (5% serum final) for 30 min, then they were washed out, and additionally incubated in growth medium (5% serum final) up to 72 h. The control wells were treated only with serum free medium (5% serum final).
(§4) For the evaluation of the in vitro antiproliferative activity of compounds, the cell viability was determined by MTT assay (3-(4,5-dimethylthiazol-2-yl)-2,5-diphenyl-tetrazolium bromide) obtained from Duchefa Biochemie (Haarlem, Netherlands).
(§5) 22 µL of MTT solution (5 mg/mL in PBS, 0.5 mg/mL final) was added to each well and after 2 h incubation at 37°C, the supernatant was removed. […] Average background absorbance (DMSO-Ethanol) was subtracted from absorbance values of control and treated wells, and cell viability was determined relative to untreated (control) wells where cell viability was arbitrarily set to 100%. […] The experiments were done in triplicate and each experiment was repeated three times.

Series [2] has as its system SK-OV-3 human ovarian cancer cells. Described as above. The series is classed as cell-based. The protocol: as §1, §2, §3, §4, §5
The test system of series [3] is A549 human lung cancer cells. The series can be described thus: In vitro antiproliferative activity, "kiss-and-run" washout experiment (30 min + washout + up to 72 h). The series is classed as cell-based. The protocol:
as §1, §2, §3, §4, §5
(§6) Recently, a new protocol for evaluating the antiproliferative activity and the targeting ability of integrin-ligand based conjugates was developed by the group of Prof. […] In this procedure, which we named “kiss-and-run” experiment, after very short initial contact times (15–30 min) of the toxin with the cells in vitro, the solution is drained, and cells are resuspended in the culture medium for a 72 h incubation. This protocol is aimed at simulating the rapid clearance of the drugs that occurs in vivo in the extracellular tumor environment, thus highlighting the ability of the conjugate to bind the integrin receptor on the cell surface.

The subject of series [4] is U87MG human malignant glioma cells. The description is as above. The series is classed as cell-based. The protocol: as §1, §2, §3, §4, §5, §6
Series [5] relates to SK-MEL-28 human melanoma cells. The description is as above. The series is classed as cell-based. The protocol: as §1, §2, §3, §4, §5, §6
Series [6] has as its system SK-OV-3 human ovarian cancer cells. The series is described as above. The class given is cell-based. The protocol:
as §1, §2, §3, §4, §5, §6

Series [7] is described as follows: Enzymatic cleavage assay with lysosomal homogenate. The series is classed as in vitro ADME. The following applies: rat liver lysosomal homogenate, conjugate:lysosomal protein 1:10 (w/w), 0.2 M NaOAc pH 5.05, 37 °C, UPLC-HRMS. The protocol:
The enzymatically cleavage test was performed by incubating the conjugate 2 with rat liver lysosomal homogenate and analyzed by LC–MS. In particular, the conjugate 2 (2.35 μg/μL in DMSO, 5 μL) was diluted with 0.2 M NaOAc solution (pH 5.05, 495 μL) to 0.024 μg/μL. The lysosomal homogenate was prepared from rat liver ([Gomena et al., 2023]), and contained proteins in 71.76 μg/μL concentration. 8.6 μL of this lysosomal homogenate was diluted with 66.4 μL 0.2 M NaOAc solution (pH 5.05), to have a protein concentration of 8.27 μg/μL. To start the assay, 15 μL lysosome homogenate (8.27 μg/μL) was added to 500 μL conjugate solution (0.025 μg/μL), to have a conjugate: lysosomal protein = 1:10 (w/w) ratio. Furthermore, a control reaction mixture was prepared, containing the conjugate (2.35 μg/μL in DMSO, 5 μL) and 510 μL of 0.2 M NaOAc solution (pH 5.05). The samples were stirred at 300 rpm, 37°C and 50 µL aliquots were taken out at 0 min, 15 min, 30 min, 1 h, 2 h, 6 h, 24 h, and 72 h. The enzymatic activity was quenched by adding 5 μL formic acid (FA) to the samples. After this procedure, samples were frozen immediately at −25°C. Control samples were collected at 0 min, 1 h, 6 h, 24 h and 72 h. The composition of the samples was determined by HPLC-MS. […] LC-MS data were analyzed by XcaliburTM software (Thermo Fisher Scientific).

Setting [8] is: relative potency = ratio of IC50 of 2 vs MMAE, 72 h no washout.
The mark [9] stands for this setting: ratio of IC50 of 2 vs MMAE, 30 min + washout + up to 72 h.
Where [10] appears, read: MTT, 30 min treatment, washout, further incubation up to 72 h, 5% serum final.

Where only a bound is given, the exact number is not on record here.

Turning to `CC[C@H](C)[C@@H]([C@@H](CC(=O)N1CCC[C@H]1[C@H](OC)[C@@H](C)C(=O)N[C@H](C)[C@@H](O)c1ccccc1)OC)N(C)C(=O)[C@@H](NC(=O)[C@H](C(C)C)N(C)C(=O)OCc1ccc(NC(=O)CNC(=O)[C@H](CC(C)C)NC(=O)[C@@H]2CCCN2C(=O)CNC(=O)CCc2cn(CCOCCOCCOCCOCC(=O)NCc3ccc(CN4C(=O)[C@H]5CC(=O)N[C@H](C(=O)O)CC(=O)NCC(=O)N[C@@H](CCCNC(=N)N)C(=O)NC[C@H]4C(=O)N5)cc3)nn2)cc1)C(C)C` [compound 2, cyclo[DKP-isoDGR]-PEG4-GPLG-PABC-MMAE], the IC50 in series [1] (MTT, 72 h continuous treatment, no washout, 5% serum final, αVβ3 low expressing line, triplicate, repeated three times) is 20.8 ± 1.8 nM; in series [2] (MTT, 72 h continuous treatment, no washout, 5% serum final, triplicate, repeated three times), 3.7 ± 0.3 nM; in series [3] (MTT, 30 min treatment, washout, further incubation up to 72 h, 5% serum final, αVβ3 low expressing line), 1240 ± 85.2 nM; in series [4] (setting [10]), 683 ± 37.1 nM; in series [5] (setting [10]), 938 ± 112 nM; in series [6] (setting [10]), 198 ± 13.7 nM. Further, the “RP [SMDC (2)/MMAE] A549” value in series [1] (setting [8]) is 302.32; in series [3] (setting [9]), 4.67. The results for the “RP [SMDC (2)/MMAE] SK-OV-3” value in series [2] (setting [8]) and in series [6] (setting [9]) were 120.52 and 0.97, respectively. The “RP [SMDC (2)/MMAE] U87MG” value in series [4] (setting [9]) was 0.32. Further, the “RP [SMDC (2)/MMAE] SK-MEL-28” value in series [5] (setting [9]) amounted to 0.67. Besides, in series [7], the “cleavage of the conjugate in the presence of lysosomal enzymes” value was “rapidly cleaved”. In addition, the “incubation time after which released free MMAE is detectable” value in series [7] is listed as ≤ 15 min.

What is called IC50 is the concentration at which inhibition is half-maximal.

For the origin of these results see article PMC10363981, “Optimizing the enzymatic release of MMAE from isoDGR-based small molecule drug conjugate by incorporation of a GPLG-PABC enzymatically cleavable linker” (Frontiers in Pharmacology, 2023).
